Assays:
Type in all cases: physicochemical
[1] = Determination of apparent density and compacted density (Stampf STAV 2003 volumeter); conditions: for Compacted density: weight/final volume after 2500 strokes; for Apparent density: weight/initial volume
Method: The determination of apparent and compacted densities was carried out with a Stampf STAV 2003 volumeter equipped with a 100-mL glass volumetric flask.
• (i) The flask was filled with a volume between 50 and 100 mL of test sample. • (ii) The volume occupied before the test (mL) was recorded. • (iii) 2500 strokes were performed with the volumeter. • (iv) The volume occupied after the test (mL) was recorded. • (v) The amount of analyzed sample (g) was weighed.
• (i) Apparent density (g/mL)=weight/initial volume • (ii) Compacted density (g/mL)=weight/final volume

[2] = Stability of polymorph II (humidity, temperature, polymorphic transition)
Method: The start of endothermic peak temperature occurred at 437.6° K, but the first recorded weight loss began at 449° K from DTA analysis. Polymorph II placed in a furnace at 423° K started decomposition after 2 hours.

[3] = DTA / thermogravimetric analysis (weight loss)
Method: The necessary amounts were carefully weighed for completing ¾ parts of the 70-μl Al2O3 crucible provided with a perforated lid that was hermetically sealed. Then, the crucible was placed into the furnace and the experiment started. The samples were heated from […] at a rate of 5° C./min under a N2 stream, the flow rate being 80 mL/min. Mass loss rate was calculated in relation to baseline by horizontal tangent plot. […] The start of endothermic peak temperature occurred at 437.6° K, but the first recorded weight loss began at 449° K from DTA analysis. Polymorph II placed in a furnace at 423° K started decomposition after 2 hours.

Structure (SMILES) | Compacted density ([1]; listed as Polymorph 1) [g/mL] | Compacted density ([1]; listed as polymorph I) [g/mL] | Apparent density ([1]; listed as Polymorph 1) [g/mL] | Apparent density ([1]; listed as polymorph I) [g/mL] | Stability in 1-month test ([2]; 1-month test at ambient temperature or humidity) | Stability after 1 day ([2]; 1 day at 25° C./80 RH) | Transition from II to I ([2]; during 1-month test) | Stability at high temperature compared with polymorph I ([2]; high temperatures (higher than 80° C.)) | Stability against humidity ([2]; humidity) | Time to start of decomposition ([2]; placed in a furnace at 423° K) [h] | Stability at temperature ([2]; temperature below 423° K) | Compacted density [1] [g/mL] | Compacted density ([1]; listed as polymorph II) [g/mL] | Apparent density [1] [g/mL] | Apparent density ([1]; listed as polymorph II) [g/mL] | Temperature at which first recorded weight loss began [3] [° K]
Clc1ccc([C@H](Cn2ccnc2)OCc2csc3c(Cl)cccc23)c(Cl)c1 [Polymorph I, arasertaconazole mononitrate] | 1.08 | 1.08 | 0.78 | 0.78 | – | – | – | – | – | – | – | – | – | – | – | –
Clc1ccc([C@H](Cn2ccnc2)OCc2csc3c(Cl)cccc23)c(Cl)c1 [Polymorph II, arasertaconazole mononitrate] | – | – | – | – | remained stable | remained stable | No transition from II to I was observed | more stable at high temperature | stable | 2 | stable | 0.53 | 0.53 | 0.39 | 0.39 | 449

— patent publication US20110251251A1, “POLYMORPH II OF AN ANTIFUNGAL COMPOUND” (FERRER INTERNACIONAL, S.A, priority 2008, published 2011)
